Measured values reported in patent publication US5597798A, “Taxol and epidermal growth factor used to enhance treatment of ovarian cancer” (The Regents of the University of California, priority 1994, dated 1997).
Like-named read-outs stand apart in the source and are kept apart here.

Legend:
[1] = tested on: 2008 human ovarian carcinoma cells; test: Colony forming assay, effect of EGF on sensitivity to cytotoxic agents; format: cell-based
2008 tumor xenografts = test: Effect of EGF on cisplatin toxicity against tumor xenografts in athymic mice; format: in vivo, athymic mice (nu/nu)
Procedure: For these studies, 3 to 4 week old female athymic mice (nu/nu) from BALB/c origin were used which were supplied by Harlan Sprague Dawley, Inc. (Indianapolis, Ind.). The mice were kept in a laminar flow hood at 28° C. and fed standard mouse diet and water ad libitum.
Tumor xenografts were established from 2008 cells by harvesting confluent cell cultures by trypsinization and resuspending the cells in RPMI 1640 medium at 2.5×10^7 cells per ml. From this suspension, 0.2 ml aliquots containing 5×10^6 cells were injected s.c. on each shoulder of the athymic mice. In each mouse, two tumors were followed and tumor volumes were determined using the formula (length×width^2)/2 (Giavazzi et al., Cancer Res. 46:1928 (1986) and Tomayko & Reynolds Cancer Chemother. Pharmacol. 24:148 (1989)).
In all groups, treatment was administered 24 hours after the inoculation with tumor cells.
Tumor growth of each tumor in each animal was expressed as plot of in(tumor volume) as a function of time. The regression line of the in(tumor volume) versus time plot was calculated by using the method of least squares. The intercept and slope were obtained and used to calculate the time each tumor required to reach an arbitrarily defined volume of 1 ml. This volume was chosen because most tumors in all treatment groups reached this endpoint. For comparisons between two groups the unpaired Student's T-test was used. […]

2008 cells [2] = test: Cellular accumulation of [195mPt]DDP; format: cell-based, human; settings: 60 min
Procedure: Cell-associated ^195m Pt was determined by as a measure of DDP accumulation. For DDP accumulation studies, subconfluent monolayers were treated with 37° C. RPMI 1640 medium containing 20 μM [^195m Pt]-DDD. The dishes were immediately returned to the incubater. After 1 h incubation, the medium was aspirated, the cells were washed rapidly with 4° C. PBS 4 times. Two ml of 1N NaOH was added and the cells allowed to digest overnight. A forty μl aliquot was used for determination of protein content by the method of Bradford (Bradford, Anal. Biochem. 72:248-254 (1976)), and the remaining […] was counted in glass tubes on a Trak 1191 gamma counter (Tracer Analytic, EIK Grove Village, Ill.). Columns represent the mean values of 3 experiments performed with duplicate cultures. The bars represent the standard deviation.
Cultured 2008 cells were treated concurrently with [^195m Pt]DDP and TPA for 60 min. A vehicle control consisting of an appropriate dilution of acetone was run concurrently. […] Cells treated with medium alone contained 140±13 pmol/mg of protein, whereas those treated with the acetone control contained 141±7 pmol/mg of protein, and those treated with TPA contained 143±21 pmol/mg of protein.

2008 cells [3] = test: Colony forming (colonogenic) assay, effect of TPA, phorbol and staurosporine on DDP sensitivity

Question: For `N.N.[Cl][Pt][Cl]` [cisplatin], which “effect of EGF on sensitivity of 2008 cells to the agent (in words)” value ([1]; EGF and the cytotoxic agent concurrently for 1 h) is on record?
Answer: significant increase in sensitivity

Question: What about the Dose modifying factor ([1]; Table 3, ratio of IC50 in control and EGF-treated cells) of the same molecule?
Answer: 2.7

Question: And the IC50 ([1]; read-out: IC50 in absence of EGF, Table 3, cisplatin 1 h, no EGF)?
Answer: 2450 nM

Question: And the IC50 ([1]; read-out: IC50 in absence of EGF, cytotoxic agent for 1 h, no EGF)?
Answer: 2800 nM

Question: What about the IC50 ([1]; read-out: IC50 in presence of EGF, EGF and the cytotoxic agent concurrently for 1 h) of the same molecule?
Answer: 900 nM

Question: What about the IC50 ([1]; read-out: IC50 in presence of EGF, Table 3, 10 nM EGF and cisplatin concurrently for 1 h) of the same molecule?
Answer: 910 nM

Question: And the final tumor volume (2008 tumor xenografts; 1 mg/kg EGF s.c. and/or 15 mg/kg cisplatin i.p., 24 hours after inoculation)?
Answer: significantly reduced relative to control tumors

Question: What about the “additional time required for tumors to reach a volume of 1 ml vs control tumors” value (2008 tumor xenografts; 15 mg/kg cisplatin i.p.) of the same molecule?
Answer: 6 days

Question: What about the “cellular accumulation of [195mPt]DDP” value (2008 cells [2]; medium alone) of the same molecule?
Answer: 140±13 pmol/mg of protein

Question: What about the “cellular accumulation of [195mPt]DDP” value (2008 cells [2]; treated concurrently with TPA) of the same molecule?
Answer: 143±21 pmol/mg of protein

Question: And the colony survival (2008 cells [3]; 2 μM DDP in the absence of TPA (FIG. 6))?
Answer: approximately 80%

Question: What about the “survival, % of control” value (2008 cells [3]; DDP (2 μM) alone) of the same molecule?
Answer: 85±5%
